Measurements from patent US20230203043A1, “NOVEL IMIDAZOPYRAZINE DERIVATIVES” (Hoffmann-La Roche Inc., priority 2020, published 2023).
Counter-ions that a name gives are not always drawn.

system: Acinetobacter baumannii ATCC17961; assay: Antimicrobial susceptibility testing: 90% growth inhibitory concentration (IC90) determination in Iso-Sensitest broth, OD600 growth; type: cell-based; settings: Acinetobacter baumannii, ATCC17961, 16 h, read-out: A. baumannii ATCC 17961 IC90 (uM), strain ATCC 17961, OD600 growth over 16 h
How it was run: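 Twofold compound dilutions (e.g. 50 to 0.097 μM final) in Iso-Sensitest broth with ~5×10^(5) CFU/ml, 35±2 °C. OD600 read every 20 min over 16 h; IC90 from growth inhibition during logarithmic phase.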

Point of comparison: `CCc1cc(Nc2nccn3c(-c4c[nH]nc4C(F)(F)F)cnc23)ccc1C(=O)NCCCNC(=O)CCCN` [Example 215, N-[3-(4-aminobutanoylamino)propyl]-2-ethyl-4-[[3-[3-(trifluoromethyl)-1H-pyrazol-4-yl]imidazo[1,2-a]pyrazin-8-yl]amino]benzamide formate], IC90 0.394 µM. Against it:
- CCc1cc(Nc2nccn3c(-c4c[nH]nc4C(F)(F)F)cnc23)ccc1C(=O)NCCNC(=O)[C@@H](N)CNC(=N)N [Example 213, N-[2-[[(2S)-2-amino-3-carbamimidamidopropanoyl]amino]ethyl]-2-ethyl-4-[[3-[3-(trifluoromethyl)-1H-pyrazol-4-yl]imidazo[1,2-a]pyrazin-8-yl]amino]benzamide formate] — within 1.5-fold, 0.378 µM
- CCc1cc(Nc2nccn3c(-c4c[nH]nc4C(F)(F)F)cnc23)ccc1C(=O)NCCNC(=O)CCCN [Example 217, N-[2-(4-aminobutanoylamino)ethyl]-2-ethyl-4-[[3-[3-(trifluoromethyl)-1H-pyrazol-4-yl]imidazo[1,2-a]pyrazin-8-yl]amino]benzamide formate] — within 1.5-fold, 0.543 µM
- CCc1cc(Nc2nccn3c(-c4c[nH]nc4C(F)(F)F)cnc23)ccc1C(=O)NCCNC(=O)NCCN [Example 218, N-[2-(2-aminoethylcarbamoylamino)ethyl]-2-ethyl-4-[[3-[3-(trifluoromethyl)-1H-pyrazol-4-yl]imidazo[1,2-a]pyrazin-8-yl]amino]benzamide formate] — within 1.5-fold, 0.574 µM
- CCc1cc(Nc2nccn3c(-c4cn(CC#N)nc4C(F)(F)F)cnc23)ccc1C(=O)N1CCC(O)(CNC)CC1 [Example 219, 2-[4-[8-[3-ethyl-4-[4-hydroxy-4-(methylaminomethyl)piperidine-1-carbonyl]anilino]imidazo[1,2-a]pyrazin-3-yl]-3-(trifluoromethyl)pyrazol-1-yl]acetonitrile formate] — 1.5-fold higher, 0.599 µM
- CCc1cc(Nc2nccn3c(-c4c[nH]nc4C(F)(F)F)cnc23)ccc1C(=O)NCCNC(=O)CCN [Example 220, N-[2-(3-aminopropanoylamino)ethyl]-2-ethyl-4-[[3-[3-(trifluoromethyl)-1H-pyrazol-4-yl]imidazo[1,2-a]pyrazin-8-yl]amino]benzamide formate] — within 1.5-fold, 0.51 µM
- CCc1cc(Nc2nccn3c(-c4c[nH]nc4C(F)(F)F)cnc23)ccc1C(=O)NCCNC(=O)[C@@H](N)CCCCN [Example 221, N-[2-[[(2S)-2,6-diaminohexanoyl]amino]ethyl]-2-ethyl-4-[[3-[3-(trifluoromethyl)-1H-pyrazol-4-yl]imidazo[1,2-a]pyrazin-8-yl]amino]benzamide formate] — 2.3-fold higher, 0.922 µM
- NCCNC(=O)NCCNC(=O)c1ccc(Nc2nccn3c(-c4c[nH]nc4C(F)(F)F)cnc23)cc1Cl [Example 222, N-[2-(2-aminoethylcarbamoylamino)ethyl]-2-chloro-4-[[3-[3-(trifluoromethyl)-1H-pyrazol-4-yl]imidazo[1,2-a]pyrazin-8-yl]amino]benzamide formate] — 2.8-fold higher, 1.09 µM
- NCCCC[C@H](N)C(=O)NCCNC(=O)c1ccc(Nc2nccn3c(-c4c[nH]nc4C(F)(F)F)cnc23)cc1Cl [Example 224, 2-chloro-N-[2-[[(2S)-2,6-diaminohexanoyl]amino]ethyl]-4-[[3-[3-(trifluoromethyl)-1H-pyrazol-4-yl]imidazo[1,2-a]pyrazin-8-yl]amino]benzamide formate] — 3.8-fold higher, 1.5 µM

same assay, conditions: Acinetobacter baumannii, ATCC17961, 16 h, strain ATCC 17961, OD600 growth over 16 h, read-out: A. baumannii ATCC 17961 IC90

With `CCOCCCNC(=O)c1ccc(Nc2nccn3c(-c4c[nH]nc4C(F)(F)F)cnc23)cc1CC` [Example 223, N-(3-ethoxypropyl)-2-ethyl-4-[[3-[3-(trifluoromethyl)-1H-pyrazol-4-yl]imidazo[1,2-a]pyrazin-8-yl]amino]benzamide] the IC90 was 1.12 µM.

same assay, conditions: strain ATCC 17961, OD600 growth over 16 h, read-out: A. baumannii ATCC 17961 IC90

`N#CCn1cc(-c2cnc3c(Nc4ccc(C(=O)N5CCN(C(=O)NC6CNC6)CC5)c(Cl)c4)nccn23)c(C(F)(F)F)n1` [Example 214, N-(azetidin-3-yl)-4-[2-chloro-4-[[3-[1-(cyanomethyl)-3-(trifluoromethyl)pyrazol-4-yl]imidazo[1,2-a]pyrazin-8-yl]amino]benzoyl] piperazine-1-carboxamide formate] showed an IC90 of 0.349 µM.
